Experimental data reported in ChEMBL document CHEMBL5038645, “Discovery of Mycobacterium tuberculosis Rv3364c-Derived Small Molecules as Potential Therapeutic Agents to Target SNX9 for Sepsis” (J Med Chem, 2022).
≈ marks a conversion by molar mass, not a printed value. Calls of active or inactive are those of the source. The calls are words filed in the database; no cut-off is given here.

What was measured:
[1] = Antiinflammatory activity in […] cells assessed as reduction in LPS-induced TNF-alpha release at 10 uM pre incubated for 1 hr followed by LPS stimulation and measured after 30 mins by ELISA; type: functional
[2] = Antiinflammatory activity in […] cells assessed as reduction in LPS-induced NOX release at 10 uM pre incubated for 1 hr followed by LPS stimulation and measured after 30 mins by ELISA; type: functional
[3] = Antiinflammatory activity in […] cells assessed as reduction in LPS-induced IL-6 release at 10 uM pre incubated for 1 hr followed by LPS stimulation and measured after 30 mins by ELISA; type: functional
[4] = test system: Escherichia coli; assay: Antibacterial activity against Escherichia coli ATCC 12701 assessed as bacterial clearance incubated for 6 to 24 hrs by microbroth dilution method; type: functional; details: time 6-24 hrs
[5] = test system: Staphylococcus aureus; assay: Antibacterial activity against Staphylococcus aureus ATCC 6538 assessed as bacterial clearance incubated for 6 to 24 hrs by microbroth dilution method; type: functional; details: time 6-24 hrs
[6] = test system: Pseudomonas aeruginosa; assay: Antibacterial activity against Pseudomonas aeruginosa ATCC 10145 assessed as bacterial clearance incubated for 6 to 24 hrs by microbroth dilution method; type: functional; details: time 6-24 hrs
[7] = Tmax in C57BL/6 mouse at 1 mg/kg, ip incubation up to 6 hrs by LC-MS/MS analysis; type: ADME, organism-based; details: in vivo
[8] = Cmax in C57BL/6 mouse at 1 mg/kg, ip incubation up to 6 hrs by LC-MS/MS analysis; type: ADME, organism-based; parameters: route intraperitoneal, dose 1 mg/kg, time <=6; details: in vivo
[9] = AUC (0 to last) in C57BL/6 mouse at 1 mg/kg, ip incubation up to 6 hrs by LC-MS/MS analysis; type: ADME, organism-based; parameters: route intraperitoneal, dose 1 mg/kg, time <=6; details: in vivo
[10] = Half life in C57BL/6 mouse at 1 mg/kg, ip incubation up to 6 hrs by LC-MS/MS analysis; type: ADME, organism-based; details: in vivo
[11] = Stability in human liver microsomes assessed as parent compound remaining at 10 uM preincubated for 5 mins followed by NADPH addition measured after 30 mins by LC-MS/MS analysis relative to control; type: ADME, Microsome; details: time 35 min, read-out: Stability
[12] = Stability in human plasma assessed as parent compound remaining at 10 uM incubation upto 120 mins by LC-MS/MS analysis relative to control; type: ADME, cell-free; details: read-out: Stability
[13] = test system: THP-1; assay: Inhibition of SNX9- p47phox protein-protein interaction in human THP-1 at 10 uM preincubated for 1 hrs followed by LPS stimulation for 30 mins; type: cell-based
[14] = test system: BMDM; assay: Inhibition of SNX9- p47phox protein-protein interaction in mouse BMDM at 10 uM preincubated for 1 hrs followed by LPS stimulation for 30 mins; type: cell-based; details: time 1.5 hrs
[15] = test system: THP-1; assay: Inhibition of SNX9- p47phox protein-protein interaction in LPS-induced early endosome of human THP-1cells at 10 uM preincubated for 1 hrs followed by LPS stimulation for 30 mins; type: cell-based
[16] = test system: BMDM; assay: Inhibition of SNX9- p47phox protein-protein interaction in LPS-induced early endosome of mouse BMDM cells at 10 uM preincubated for 1 hrs followed by LPS stimulation for 30 mins; type: cell-based
[17] = test system: THP-1; assay: Antiinflammatory activity in LPS-induced human THP-1 cells assessed as reduction in TNF-alpha production preincubated for 1 hr followed by LPS stimulation and measured after 30 mins by ELISA; type: functional, cell-based; details: dose 1-10000 nM
[18] = test system: BMDM; assay: Antiinflammatory activity in LPS-induced […] cells assessed as reduction in TNF-alpha production preincubated for 1 hr followed by LPS stimulation and measured after 30 mins by ELISA; type: functional, cell-based; details: dose 1-10000 nM
[19] = test system: THP-1; assay: Effect on SNX9 expression in human THP-1 cells at 1 to 5000 nM measured after 24 to 48 hrs; type: functional, cell-based; details: dose 1-5000 nM, time 24-48 hrs
[20] = test system: BMDM; assay: Effect on SNX9 expression in mouse BMDM cells at 1 to 5000 nM measured after 24 to 48 hrs; type: functional, cell-based; details: dose 1-5000 nM, time 24-48 hrs
[21] = test system: Mus musculus; assay: Protection against CLP-induced ip dosed systemic sepsis SNX9+/+ mouse model; type: functional, organism-based; details: dose 1.0 µg/kg
[22] = test system: Mus musculus; assay: Protection against CLP-induced systemic sepsis SNX9+/+ mouse model assessed as mortality at 100 to 1000 microg/kg, ip; type: functional; details: dose 100-1000 µg/kg; at 100 to 1000 µg/kg
[23] = test system: Mus musculus; assay: Protection against CLP-induced systemic sepsis SNX9-/- mouse model assessed as effect on mouse survival at 100 to 1000 microg/kg, ip; type: functional, organism-based; details: dose 100-1000 µg/kg
[24] = test system: Mus musculus; assay: Protection against CLP-induced systemic sepsis SNX9+/+ mouse model assessed as reduction in serum TNF-alpha at 10 microg/kg, ip; type: functional, organism-based; details: dose 10.0 µg/kg
[25] = test system: Mus musculus; assay: Protection against CLP-induced systemic sepsis SNX9+/+ mouse model assessed as reduction in serum IL-6 at 10 microg/kg, ip; type: functional, organism-based; details: dose 10.0 µg/kg
[26] = test system: Mus musculus; assay: Protection against CLP-induced systemic sepsis SNX9+/+ mouse model assessed as reduction in serum IL-1beta at 10 microg/kg, ip; type: functional, organism-based; details: dose 10.0 µg/kg
[27] = test system: Mus musculus; assay: Protection against CLP-induced systemic sepsis SNX9+/+ mouse model assessed as reduction in serum IL-18 at 10 microg/kg, ip; type: functional, organism-based; details: dose 10.0 µg/kg
[28] = test system: Mus musculus; assay: Protection against CLP-induced systemic sepsis SNX9+/+ mouse model assessed as reduction in serum IL-12p40 at 10 microg/kg, ip; type: functional, organism-based; details: dose 10.0 µg/kg
[29] = test system: Mus musculus; assay: Protection against CLP-induced systemic sepsis SNX9+/+ mouse model assessed as reduction in serum IL-10 at 10 microg/kg, ip; type: functional, organism-based; details: dose 10.0 µg/kg
[30] = test system: Mus musculus; assay: Protection against CLP-induced systemic sepsis SNX9+/+ mouse model assessed as reduction in infiltration of immune cells at 10 microg/kg, ip by H & E staining based analysis; type: functional, organism-based; details: dose 10.0 µg/kg
[31] = test system: Mus musculus; assay: Protection against CLP-induced systemic sepsis SNX9+/+ mouse model assessed as reduction in lung damage at 10 microg/kg, ip by H and E staining based analysis; type: functional, organism-based; details: dose 10.0 µg/kg
[32] = test system: Mus musculus; assay: Protection against CLP-induced systemic sepsis SNX9+/+ mouse model assessed as reduction in liver damage at 10 microg/kg, ip by H and E staining based analysis; type: functional, organism-based; details: dose 10.0 µg/kg
[33] = test system: Mus musculus; assay: Protection against CLP-induced systemic sepsis SNX9+/+ mouse model assessed as reduction in spleen damage at 10 microg/kg, ip by H and E staining based analysis; type: functional, organism-based; details: dose 10.0 µg/kg
[34] = test system: Mus musculus; assay: In vivo inhibition of SNX9-p47phox protein-protein interaction in CLP-induced systemic sepsis mouse model at 10 microg/kg, ip; type: functional, organism-based; details: dose 10.0 µg/kg
[35] = test system: Mus musculus; assay: In vivo inhibition of SNX9-p47phox protein-protein interaction in CLP-induced systemic sepsis mouse model assessed as reduction ROS in splenocytes at 10 microg/kg, ip; type: functional, organism-based; details: dose 10.0 µg/kg
[36] = Drug uptake in CLP-induced systemic sepsis mouse model in lung macrophages at 10 microg/kg, ip; type: ADME, tissue-based; details: in vivo, 0.01 mg/kg, dose 10 µg/kg
[37] = Drug uptake in CLP-induced systemic sepsis mouse model in liver macrophages at 10 microg/kg, ip; type: ADME, tissue-based; details: in vivo, 0.01 mg/kg, dose 10 µg/kg

## CC(C)(C)c1ccc(-c2nc(NCCOCCOCCN)nc(NCC3CCCO3)n2)cc1.Cl (centres undefined)
[1]
  inhibition at 10 µM: 60.8%
[2]
  inhibition at 10 µM: 57%
[3]
  inhibition at 10 µM: 66.7%
[4]
  MIC80: 1.98 µg/mL
[5]
  MIC80: 4 µg/mL
[6]
  MIC80: 1.98 µg/mL
[7]
  Tmax: 10.2 min
[8]
  Cmax: 136 ng/mL
[9]
  AUC(0-t) at 6 h: 209 ng·h/mL
[10]
  half-life: 63.6 min
[11]
  remaining at 0.5 h, 10 µM: > 100%
[12]
  remaining at 2 h, 10 µM: 93%
[13]
  inhibition: Active
[14]
  inhibition: Active
[15]
  inhibition: Active
[16]
  inhibition: Active
[17]
  Activity: Dose-Dependent Effect
[18]
  Activity: Dose-Dependent Effect
[19]
  Activity: inactive
[20]
  Activity: inactive
[21]
  Activity: Dose-Dependent Effect
[22]
  Activity: 70%
[23]
  Activity: inactive
[24]
  Activity: Active
[25]
  Activity: Active
[26]
  Activity: Active
[27]
  Activity: Active
[28]
  Activity: Active
[29]
  Activity: Active
[30]
  Activity: Active
[31]
  Activity: Active
[32]
  Activity: Active
[33]
  Activity: Active
[34]
  inhibition: Active
[35]
  inhibition: Active
[36]
  Drug uptake: Active
[37]
  Drug uptake: Active

## Cc1onc(-c2ccccc2)c1C(=O)N[C@@H]1C(=O)N2[C@@H]1SC(C)(C)[C@@H]2C(=O)O [OXACILLIN]
[4]
  MIC80: 0.25 µg/mL (≈ 0.623 µM)
[5]
  MIC80: 0.06 µg/mL (≈ 0.149 µM)
[6]
  MIC80: 1.98 µg/mL (≈ 4.93 µM)

## CC(C)(C)c1ccc(-c2nc(NCCCOCCOCCCN)nc(NCC3CCCO3)n2)cc1 (centres undefined)
[1]
  inhibition at 10 µM: 13.8%
[2]
  inhibition at 10 µM: 19.1%
[3]
  inhibition at 10 µM: 22.3%

## Cc1ccc(CNc2nc(NCCOCCOCCN)nc(-c3ccc(C(C)(C)C)cc3)n2)cc1
[1]
  inhibition at 10 µM: 35.9%
[2]
  inhibition at 10 µM: 15.3%
[3]
  inhibition at 10 µM: 33.3%

## GENTAMICIN
[4]
  MIC=>80: 0.99 µg/mL
[5]
  MIC=>80: 0.5 µg/mL
[6]
  MIC=>80: 7.94 µg/mL

## C=CCNc1nc(NCCOCCOCCN)nc(-c2ccc(C(C)(C)C)cc2)n1
[1]
  inhibition at 10 µM: 23.4%
[2]
  inhibition at 10 µM: 29.2%
[3]
  inhibition at 10 µM: 32.6%

## NCCOCCOCCNc1nc(NCC2CCCO2)nc(-c2ccc(Cl)cc2)n1 (centres undefined)
[1]
  inhibition at 10 µM: 25.3%
[2]
  inhibition at 10 µM: 30.7%
[3]
  inhibition at 10 µM: 33.3%

## CC1(C)S[C@@H]2[C@H](NC(=O)[C@H](N)c3ccccc3)C(=O)N2[C@H]1C(=O)O [AMPICILLIN]
[4]
  MIC80: 1.98 µg/mL (≈ 5.67 µM)
[5]
  MIC80: 0.25 µg/mL (≈ 0.715 µM)
[6]
  MIC80: 0.99 µg/mL (≈ 2.83 µM)

## Cc1cccc(CNc2nc(NCCOCCOCCN)nc(-c3ccc(C(C)(C)C)cc3)n2)c1
[1]
  inhibition at 10 µM: 25.3%
[2]
  inhibition at 10 µM: 41.6%
[3]
  inhibition at 10 µM: 56.7%

## CC(C)(C)c1ccc(-c2nc(NCCOCCOCCN)nc(NCc3cccc(Cl)c3)n2)cc1
[1]
  inhibition at 10 µM: 50.1%
[2]
  inhibition at 10 µM: 41.5%
[3]
  inhibition at 10 µM: 43.3%
